Reference: PubChem BioAssay (NCI)
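Test compounds were applied to cells in 96-well plates for 48 hours at 5 doses. TGI marks complete inhibition of growth.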

Columns and labels:
Assay in all cases: inhibition of tumour cell growth, NCI panel, 48 h
[1] = tested on: 786-0 renal
[2] = tested on: A498 renal
[3] = tested on: A549 NSCLC
[4] = tested on: ACHN renal
[5] = tested on: CAKI-1 renal
[6] = tested on: CCRF-CEM leukemia
[7] = tested on: COLO 205 colon
[8] = tested on: DLD-1 colon
[9] = tested on: DMS 273 small cell lung
[10] = tested on: EKVX NSCLC
[11] = tested on: HCC-2998 colon
[12] = tested on: HCT-116 colon
[13] = tested on: HCT-15 colon
[14] = tested on: HL-60(TB) leukemia
[15] = tested on: HOP-18 NSCLC
[16] = tested on: HOP-62 NSCLC
[17] = tested on: HOP-92 NSCLC
[18] = tested on: HT29 colon
[19] = tested on: IGROV1 ovarian
[20] = tested on: K-562 leukemia
[21] = tested on: KM12 colon
[22] = tested on: KM20L2 colon
[23] = tested on: LOX IMVI melanoma
[24] = tested on: LXFL 529 NSCLC
[25] = tested on: M14 melanoma
[26] = tested on: M19-MEL melanoma
[27] = tested on: MALME-3M melanoma
[28] = tested on: MOLT-4 leukemia
[29] = tested on: NCI-H226 lung
[30] = tested on: NCI-H23 lung
[31] = tested on: NCI-H460 lung
[32] = tested on: NCI-H522 lung
[33] = tested on: OVCAR-3 ovarian
[34] = tested on: OVCAR-4 ovarian
[35] = tested on: OVCAR-5 ovarian
[36] = tested on: OVCAR-8 ovarian
[37] = tested on: RXF 393 renal
[38] = tested on: RXF-631 renal
[39] = tested on: SF-268 CNS
[40] = tested on: SF-295 CNS
[41] = tested on: SF-539 CNS
[42] = tested on: SK-MEL-2 melanoma
[43] = tested on: SK-MEL-28 melanoma
[44] = tested on: SK-MEL-5 melanoma
[45] = tested on: SK-OV-3 ovarian
[46] = tested on: SN12C renal
[47] = tested on: SNB-19 CNS
[48] = tested on: SNB-75 CNS
[49] = tested on: SNB-78 CNS
[50] = tested on: SR leukemia
[51] = tested on: SW-620 colon
[52] = tested on: TK-10 renal
[53] = tested on: U251 CNS
[54] = tested on: UACC-257 melanoma
[55] = tested on: UACC-62 melanoma
[56] = tested on: UO-31 renal
[57] = tested on: XF 498 CNS
[58] = tested on: DMS 114 small cell lung
[59] = tested on: RPMI-8226 leukemia
[60] = tested on: BT-549 breast
[61] = tested on: DU-145 prostate
[62] = tested on: HS 578T breast
[63] = tested on: MDA-MB-231 breast
[64] = tested on: MDA-MB-435
[65] = tested on: MDA-N
[66] = tested on: PC-3 prostate
[67] = tested on: T-47D breast

Compound: CCOC(=O)C1=C(NNC(=O)Cc2ccccc2)CSC1=Nc1ccccc1
- TGI [1]: > 100 µM
- TGI [2]: > 100 µM
- TGI [3]: > 100 µM
- TGI [4]: > 100 µM
- TGI [5]: > 100 µM
- TGI [6]: > 100 µM
- TGI [7]: > 100 µM
- TGI [8]: > 100 µM
- TGI [9]: > 100 µM
- TGI [10]: > 100 µM
- TGI [11]: > 100 µM
- TGI [12]: > 100 µM
- TGI [13]: > 100 µM
- TGI [14]: > 100 µM
- TGI [15]: > 100 µM
- TGI [16]: > 100 µM
- TGI [17]: > 100 µM
- TGI [18]: > 100 µM
- TGI [19]: > 100 µM
- TGI [20]: > 100 µM
- TGI [21]: > 100 µM
- TGI [22]: > 100 µM
- TGI [23]: > 100 µM
- TGI [24]: > 100 µM
- TGI [25]: > 100 µM
- TGI [26]: > 100 µM
- TGI [27]: > 100 µM
- TGI [28]: > 100 µM
- TGI [29]: > 100 µM
- TGI [30]: > 100 µM
- TGI [31]: > 100 µM
- TGI [32]: > 100 µM
- TGI [33]: > 100 µM
- TGI [34]: > 100 µM
- TGI [35]: > 100 µM
- TGI [36]: > 100 µM
- TGI [37]: > 100 µM
- TGI [38]: > 100 µM
- TGI [39]: > 100 µM
- TGI [40]: > 100 µM
- TGI [41]: > 100 µM
- TGI [42]: > 100 µM
- TGI [43]: > 100 µM
- TGI [44]: > 100 µM
- TGI [45]: > 100 µM
- TGI [46]: > 100 µM
- TGI [47]: > 100 µM
- TGI [48]: > 100 µM
- TGI [49]: > 100 µM
- TGI [50]: > 100 µM
- TGI [51]: > 100 µM
- TGI [52]: > 100 µM
- TGI [53]: > 100 µM
- TGI [54]: > 100 µM
- TGI [55]: > 100 µM
- TGI [56]: > 100 µM
- TGI [57]: > 100 µM

Compound: Cc1cc(C)c2c(c1)Nc1ccccc1P2c1ccccc1 (stereo not drawn)
- TGI [1]: > 100 µM
- TGI [3]: > 100 µM
- TGI [5]: 98.1 µM
- TGI [7]: > 100 µM
- TGI [8]: 65.7 µM
- TGI [58]: > 100 µM
- TGI [9]: 50.7 µM
- TGI [10]: 91.1 µM
- TGI [11]: 60 µM
- TGI [13]: > 100 µM
- TGI [14]: 59.6 µM
- TGI [16]: 66.8 µM
- TGI [17]: 58.9 µM
- TGI [18]: > 100 µM
- TGI [19]: > 100 µM
- TGI [20]: > 100 µM
- TGI [22]: 74.7 µM
- TGI [23]: > 100 µM
- TGI [24]: > 100 µM
- TGI [25]: > 100 µM
- TGI [27]: 71.8 µM
- TGI [28]: > 100 µM
- TGI [30]: 83.8 µM
- TGI [31]: 50.8 µM
- TGI [33]: 61 µM
- TGI [34]: > 100 µM
- TGI [36]: > 100 µM
- TGI [59]: 26.7 µM
- TGI [37]: > 100 µM
- TGI [39]: > 100 µM
- TGI [40]: 56.3 µM
- TGI [43]: > 100 µM
- TGI [45]: > 100 µM
- TGI [46]: > 100 µM
- TGI [47]: 83.9 µM
- TGI [48]: 78.5 µM
- TGI [49]: > 100 µM
- TGI [51]: > 100 µM
- TGI [52]: > 100 µM
- TGI [53]: > 100 µM
- TGI [55]: > 100 µM
- TGI [56]: 57.8 µM
- TGI [57]: 33.3 µM

Compound: COc1ccc2cc1Oc1ccc(cc1)C[C@@H]1c3cc(c(OC)cc3CCN1C)Oc1c(OC)c(OC)cc3c1[C@@H](C2)N(C)CC3
- TGI [2]: 32.5 µM
- TGI [4]: 34.8 µM
- TGI [6]: 35 µM
- TGI [8]: 71.6 µM
- TGI [9]: 35.3 µM
- TGI [11]: 30.7 µM
- TGI [12]: 13 µM
- TGI [13]: 30 µM
- TGI [14]: 39.9 µM
- TGI [16]: 35.8 µM
- TGI [17]: 26.9 µM
- TGI [19]: 40.8 µM
- TGI [20]: 9.77 µM
- TGI [22]: 21.3 µM
- TGI [24]: 32.7 µM
- TGI [25]: 4.01 µM
- TGI [30]: 33.7 µM
- TGI [31]: 27.3 µM
- TGI [32]: 30 µM
- TGI [33]: 33.8 µM
- TGI [36]: 28.2 µM
- TGI [59]: 39.9 µM
- TGI [37]: 8.77 µM
- TGI [38]: 30 µM
- TGI [39]: 52.4 µM
- TGI [40]: 31.3 µM
- TGI [41]: 23 µM
- TGI [44]: 33.8 µM
- TGI [45]: 41.2 µM
- TGI [47]: 30.8 µM
- TGI [48]: 23.7 µM
- TGI [49]: 31.6 µM
- TGI [50]: 43.3 µM
- TGI [52]: 33.5 µM
- TGI [53]: 26 µM
- TGI [54]: 28.1 µM
- TGI [57]: 19.3 µM

Compound: O=C1/C(=C/c2ccc3c(c2)OCO3)CCC1CN1CCOCC1 (stereo not drawn)
- TGI [1]: 11.3 µM
- TGI [2]: 23.9 µM
- TGI [3]: 43.3 µM
- TGI [4]: 24 µM
- TGI [60]: 42.1 µM
- TGI [5]: 9.21 µM
- TGI [6]: 5.91 µM
- TGI [7]: 35.8 µM
- TGI [8]: 6.31 µM
- TGI [58]: 15.6 µM
- TGI [9]: 25.3 µM
- TGI [61]: 29.6 µM
- TGI [10]: 34.7 µM
- TGI [11]: 17.4 µM
- TGI [12]: 14.5 µM
- TGI [13]: 8.46 µM
- TGI [14]: 3.99 µM
- TGI [15]: 31.4 µM
- TGI [16]: 25.6 µM
- TGI [17]: 29.3 µM
- TGI [62]: 14.8 µM
- TGI [18]: 38.5 µM
- TGI [19]: 40.1 µM
- TGI [20]: 8.42 µM
- TGI [21]: 11 µM
- TGI [22]: 36.9 µM
- TGI [23]: 7.84 µM
- TGI [24]: 7.68 µM
- TGI [25]: 15.3 µM
- TGI [26]: 10 µM
- TGI [27]: 22.6 µM
- TGI [63]: 7.73 µM
- TGI [64]: 40.6 µM
- TGI [65]: 4.07 µM
- TGI [28]: 9.46 µM
- TGI [29]: 33.8 µM
- TGI [30]: 25.1 µM
- TGI [31]: 33.4 µM
- TGI [32]: 2.78 µM
- TGI [33]: 20.5 µM
- TGI [34]: 18.8 µM
- TGI [35]: 31.8 µM
- TGI [36]: 21.4 µM
- TGI [66]: 4.49 µM
- TGI [59]: 1.73 µM
- TGI [37]: 24.7 µM
- TGI [38]: 44.7 µM
- TGI [39]: 28.8 µM
- TGI [40]: 33.7 µM
- TGI [41]: 28.1 µM
- TGI [42]: 28.6 µM
- TGI [43]: 10.4 µM
- TGI [44]: 20.4 µM
- TGI [45]: 32.9 µM
- TGI [46]: 12 µM
- TGI [47]: 31.2 µM
- TGI [48]: 28.7 µM
- TGI [49]: 41.8 µM
- TGI [50]: 5.42 µM
- TGI [51]: 4.83 µM
- TGI [67]: 42.3 µM
- TGI [52]: 21.6 µM
- TGI [53]: 14.3 µM
- TGI [54]: 22.6 µM
- TGI [55]: 20.5 µM
- TGI [56]: 29.2 µM
